Measured values as given in patent US6670446B1, “N1 modified glycopeptides” (Eli Lilly and Company, priority 1998, dated 2003).

Key:
Format in all cases: cell-based
[1] = test system: Resistant Enterococcus faecium and faecalis; experiment: MIC, standard broth micro-dilution assay, Resistant; conditions: geometric mean of 4-6 isolates
Experimental: (§1) The antibacterial efficacy of the present compounds is illustrated by Table III. The minimal inhibitory concentrations (MICs) were determined using a standard broth micro-dilution assay.

[2] = test system: Enterococcus faecium 180-1; experiment: MIC, standard broth micro-dilution assay, EF 180-1
Experimental: as §1

[3] = test system: Staphylococcus haemolyticus 415; experiment: MIC, standard broth micro-dilution assay, SH 415
Experimental: as §1

[4] = test system: Staphylococcus aureus 491; experiment: MIC, standard broth micro-dilution assay, SA 491
Experimental: as §1

[5] = test system: Staphylococcus aureus 446; experiment: MIC, standard broth micro-dilution assay, SA 446
Experimental: as §1

[6] = test system: Staphylococcus aureus 447; experiment: MIC, standard broth micro-dilution assay, SA 447
Experimental: as §1

[7] = test system: Staphylococcus aureus S13E
Experimental: as §1

[8] = test system: Staphylococcus epidermidis 270; experiment: MIC, standard broth micro-dilution assay, SE 270
Experimental: as §1

[9] = test system: Sensitive Enterococcus faecium and faecalis; experiment: MIC, standard broth micro-dilution assay, Sensitive; conditions: geometric mean of 4-6 isolates
Experimental: as §1

[10] = test system: Haemophilus influenzae RD; experiment: MIC, standard broth micro-dilution assay, HFRD
Experimental: as §1

[11] = test system: Enterococcus faecalis 276; experiment: MIC, standard broth micro-dilution assay, EF 276
Experimental: as §1

[12] = test system: Staphylococcus aureus 489; experiment: MIC, standard broth micro-dilution assay, SA 489
Experimental: as §1

[13] = test system: Staphylococcus aureus SA1199; experiment: MIC, standard broth micro-dilution assay, SA 1199
Experimental: as §1

[14] = test system: Staphylococcus haemolyticus 105; experiment: MIC, standard broth micro-dilution assay, SH 105
Experimental: as §1

[15] = test system: Staphylococcus aureus X778; experiment: MIC, standard broth micro-dilution assay, SA X778
Experimental: as §1

Enterococcus faecium 180 = experiment: MIC, standard broth micro-dilution assay, EF 180
Experimental: as §1

Escherichia coli EC14 = experiment: MIC, standard broth micro-dilution assay, EC 14
Experimental: as §1

[16] = test system: Enterococcus faecalis 2041; experiment: MIC, standard broth micro-dilution assay, EF 2041
Experimental: as §1

[17] = test system: Staphylococcus aureus SA1199A; experiment: MIC, standard broth micro-dilution assay, SA 1199A
Experimental: as §1

[18] = test system: Staphylococcus aureus X400; experiment: MIC, standard broth micro-dilution assay, SA X400
Experimental: as §1

[19] = test system: Enterococcus gallinarum 245; experiment: MIC, standard broth micro-dilution assay, EG 245
Experimental: as §1

Compound | minimal inhibitory concentration (MIC), Resistant [1] | minimal inhibitory concentration (MIC), EF 180-1 [2] | minimal inhibitory concentration (MIC), SH 415 [3] | minimal inhibitory concentration (MIC), SA 491 [4] | minimal inhibitory concentration (MIC), SA 446 [5] | minimal inhibitory concentration (MIC), SA 447 [6] | minimal inhibitory concentration (MIC), SA S13E [7] | minimal inhibitory concentration (MIC), SE 270 [8] | minimal inhibitory concentration (MIC), Sensitive [9] | minimal inhibitory concentration (MIC), HFRD [10] | minimal inhibitory concentration (MIC), EF 276 [11] | minimal inhibitory concentration (MIC), SA 489 [12] | minimal inhibitory concentration (MIC), SA 1199 [13] | minimal inhibitory concentration (MIC), SH 105 [14] | minimal inhibitory concentration (MIC), SA X778 [15] | minimal inhibitory concentration (MIC), EF 180 (Enterococcus faecium 180) | minimal inhibitory concentration (MIC), EC 14 (Escherichia coli EC14) | minimal inhibitory concentration (MIC), EF 2041 [16] | minimal inhibitory concentration (MIC), SA 1199A [17] | minimal inhibitory concentration (MIC), SA X400 [18] | other results
CC(C)CC(NC(=O)OC(C)(C)C)C(=O)NC1C(=O)NC(CC(N)=O)C(=O)NC2C(=O)NC3C(=O)NC(C(=O)NC(C(=O)O)c4cc(O)cc(O)c4-c4cc3ccc4O)C(OC3CC(C)(N)C(O)C(C)O3)c3ccc(c(Cl)c3)Oc3cc2cc(c3OC2OC(CO)C(O)C(O)C2OC2CC(C)(NCc3ccc(-c4ccccc4)cc3)C(O)C(C)O2)Oc2ccc(cc2Cl)C1O [Example 18, N^1-(N-BOC-D-leucine) derivative of N^DISACC-(p-phenylbenzyl)desleucylA82846B] | 27 | 0.5 | 1 | ≦.06 | 0.5 | 0.5 | 0.5 | 0.25 | 0.87 | 16 | 0.5 | 0.125 | 0.5 | 1 | 0.25 | 2 | >64 | ≦.06 | no growth | 0.25 | minimal inhibitory concentration (MIC), EG 245 [19]: 1
CC1OC(OC2c3ccc(c(Cl)c3)Oc3cc4cc(c3OC3OC(CO)C(O)C(O)C3OC3CC(C)(NCc5ccc(-c6ccccc6)cc5)C(O)C(C)O3)Oc3ccc(cc3Cl)C(O)C(NC(=O)C3CCCN3)C(=O)NC(CC(N)=O)C(=O)NC4C(=O)NC3C(=O)NC2C(=O)NC(C(=O)O)c2cc(O)cc(O)c2-c2cc3ccc2O)CC(C)(N)C1O [Example 12, N^1-D-proline derivative of N^DISACC-(p-phenylbenzyl)desleucylA82846B] | 2.8 | ≦.06 | 0.25 | 0.5 | 2 | 0.5 | 2 | 0.125 | 0.19 | 32 | 1 | 2 | 1 | 0.125 | 0.25 | 1 | >64 | 0.25 | 0.25 | 1 | minimal inhibitory concentration (MIC), EG 245 [19]: 0.25
CC(C)CC(NC(=O)OC(C)(C)C)C(=O)NC1C(=O)NC(CC(N)=O)C(=O)NC2C(=O)NC3C(=O)NC(C(=O)NC(C(=O)O)c4cc(O)cc(O)c4-c4cc3ccc4O)C(OC3CC(C)(N)C(O)C(C)O3)c3ccc(c(Cl)c3)Oc3cc2cc(c3OC2OC(CO)C(O)C(O)C2O)Oc2ccc(cc2Cl)C1O [Example 36, N^1-(N-BOC-D-leucine) derivative of desepivancosaminyl desleucylA82846B] | >128 | 4 | >64 | 2 | 8 | 16 | 4 | 16 | 16 | >64 | 4 | 4 | 4 | 2 | 4 | >64 | >64 | 8 | 4 | 4 | minimal inhibitory concentration (MIC), EG 245 [19]: 16
CC(C)CCC(=O)N[C@H]1C(=O)N[C@@H](CC(N)=O)C(=O)N[C@H]2C(=O)N[C@H]3C(=O)NC(C(=O)N[C@H](C(=O)O)c4cc(O)cc(O)c4-c4cc3ccc4O)[C@H](OC3CC(C)(N)C(O)C(C)O3)c3ccc(c(Cl)c3)Oc3cc2cc(c3OC2OC(CO)C(O)C(O)C2OC2CC(C)(N)C(O)C(C)O2)Oc2ccc(cc2Cl)[C@H]1O (stereo partly drawn) [Example 4, N^1-(4-methyl-n-pentanoyl)desleucylA82846B] | >128 | 0.5 | 16 | 0.125 | 1 | 1 | 0.5 | 0.5 | 4 | >64 | 0.5 | 0.5 | 0.5 | 0.25 | 0.5 | >64 | >64 | 1 | 0.5 | 0.25 | minimal inhibitory concentration (MIC), EG 245 [19]: 4
CC(C)CC(NCc1ccc(-c2ccccc2)cc1)C(=O)NC1C(=O)NC(CC(N)=O)C(=O)NC2C(=O)NC3C(=O)NC(C(=O)NC(C(=O)O)c4cc(O)cc(O)c4-c4cc3ccc4O)C(OC3CC(C)(N)C(O)C(C)O3)c3ccc(c(Cl)c3)Oc3cc2cc(c3OC2OC(CO)C(O)C(O)C2OC2CC(C)(NCc3ccc(-c4ccccc4)cc3)C(O)C(C)O2)Oc2ccc(cc2Cl)C1O [Example 35, N^1-[N-(p-phenylbenzyl)-D-leucine] derivative of N^DISACC-(p-phenylbenzyl)desleucylA82846B] | 4.8 | 0.25 | 2 | 1 | 2 | 2 | 2 | 1 | 0.66 | >64 | 1 | 2 | 2 | 0.5 | 1 | 1 | >64 | 0.5 | 1 | 2 | minimal inhibitory concentration (MIC), EG 245 [19]: 1
